PubChem BioAssay AID2060615 (Molecular Pharmacology Branch, DTP, NCI, 2025)
pIC50: −log10 of the molar value. Values joined by “and” are separate entries in the source; they are usually repeats but may differ in a detail not shown here. Equal entries are not always repeated. One block for each compound: values may come before it.

Test system: 496974-208-R-J2-PDC complex spheroids, growth % test/control
Test: Anticancer human tumor 496974-208-R-J2-PDC patient-derived pancreatic carcinoma cell line growth inhibition [CLK]
Details: for viability, T/C: stronger effect = lower value
Summary of the method: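 Patient-derived tumor cells grown as complex spheroids with HUVEC endothelial cells and mesenchymal stem cells, treated with drug combinations. Concentrations descend in half-log steps from near clinical Cmax, or from 10 microM if Cmax unknown.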

[1] = curve of first compound, second compound 0.0316 µM
[2] = curve of first compound, second compound 0.1 µM
[3] = curve of first compound, second compound 0.316 µM
[4] = curve of first compound, second compound 1 µM
[5] = curve of first compound, second compound 3.16 µM
[6] = curve of first compound, second compound 10 µM
[7] = second compound 0.0316 µM, first compound 0.0316 µM
[8] = second compound 0.0316 µM, first compound 0.1 µM
[9] = second compound 0.0316 µM, first compound 0.316 µM
[10] = second compound 0.0316 µM, first compound 1 µM
[11] = second compound 0.1 µM, first compound 0.0316 µM
[12] = second compound 0.1 µM, first compound 0.1 µM
[13] = second compound 0.1 µM, first compound 0.316 µM
[14] = second compound 0.1 µM, first compound 1 µM
[15] = second compound 0.316 µM, first compound 0.0316 µM
[16] = second compound 0.316 µM, first compound 0.1 µM
[17] = second compound 0.316 µM, first compound 0.316 µM
[18] = second compound 0.316 µM, first compound 1 µM
[19] = second compound 1 µM, first compound 0.0316 µM
[20] = second compound 1 µM, first compound 0.1 µM
[21] = second compound 1 µM, first compound 0.316 µM
[22] = second compound 1 µM, first compound 1 µM
[23] = second compound 3.16 µM, first compound 0.0316 µM
[24] = second compound 3.16 µM, first compound 0.1 µM
[25] = second compound 3.16 µM, first compound 0.316 µM
[26] = second compound 3.16 µM, first compound 1 µM
[27] = second compound 10 µM, first compound 0.0316 µM
[28] = second compound 10 µM, first compound 0.1 µM
[29] = second compound 10 µM, first compound 0.316 µM
[30] = second compound 10 µM, first compound 1 µM
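Further: spheroids exposed to the drugs for 7 days before readout.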
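Wherever viability, T/C is given: 100% = DMSO vehicle control wells.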

SMILES: CC(Nc1ccc2c(c1)OCCn1cc(N3C(=O)OCC3C(F)F)nc1-2)C(N)=O (stereo not drawn) + CN1CCN(c2cc(C(=O)Nc3cc4cc(-c5cnn(C)c5)ccc4cn3)ccn2)CC1
pIC50 [1]: 6.78 | pIC50 [2]: 7.00 | pIC50 [3]: > 7.50 | pIC50 [4]: > 7.50 | pIC50 [5]: > 7.50 | pIC50 [6]: > 7.50 | viability, T/C [7]: 86.4% | viability, T/C [8]: 60.1% | viability, T/C [9]: 37.2% | viability, T/C [10]: 22% | viability, T/C (second compound 0.0316 µM, first compound 3.16 µM): 13.6% | viability, T/C (second compound 0.0316 µM, first compound 10 µM): 8.34% | viability, T/C [11]: 64% | viability, T/C [12]: 51.2% | viability, T/C [13]: 32.3% | viability, T/C [14]: 20.9% | viability, T/C (second compound 0.1 µM, first compound 3.16 µM): 14.5% | viability, T/C (second compound 0.1 µM, first compound 10 µM): 8.7% | viability, T/C [15]: 7.37% | viability, T/C [16]: 5.41% | viability, T/C [17]: 2.52% | viability, T/C [18]: 2.18% | viability, T/C (second compound 0.316 µM, first compound 3.16 µM): 2.7% | viability, T/C (second compound 0.316 µM, first compound 10 µM): 2.59% | viability, T/C [19]: 0.4% | viability, T/C [20]: 0.53% | viability, T/C [21]: 2.57% | viability, T/C [22]: 0.36% | viability, T/C (second compound 1 µM, first compound 3.16 µM): 1.09% | viability, T/C (second compound 1 µM, first compound 10 µM): 1.26% | viability, T/C [23]: 0.43% | viability, T/C [24]: 0.34% | viability, T/C [25]: 1.75% | viability, T/C [26]: 0.38% | viability, T/C (second compound 3.16 µM, first compound 3.16 µM): 0.52% | viability, T/C (second compound 3.16 µM, first compound 10 µM): 0.5% | viability, T/C [27]: 0.2% | viability, T/C [28]: 0.58% | viability, T/C [29]: 1.4% | viability, T/C [30]: 0.27% | viability, T/C (second compound 10 µM, first compound 3.16 µM): 0.59% | viability, T/C (second compound 10 µM, first compound 10 µM): 0.57%

pIC50 (curve of compound): < 6.52
SMILES: C=CC(=O)Nc1cc(Nc2nccc(-c3cn(C)c4ccccc34)n2)c(OC)cc1N(C)CCN(C)C
viability, T/C (compound 0.000949 µM): 102% and 103% | viability, T/C (compound 0.003 µM): 99.3% and 105% | viability, T/C (compound 0.00949 µM): 86% and 93.1% | viability, T/C (compound 0.03 µM): 85.4% and 94.9% | viability, T/C (compound 0.0949 µM): 98.1% and 88.5% | viability, T/C (compound 0.3 µM): 70.9% and 70.3%

pIC50 (curve of compound): 5.13 and 5.20
SMILES: CCCS(=O)(=O)Nc1ccc(F)c(C(=O)c2c[nH]c3ncc(-c4ccc(Cl)cc4)cc23)c1F
viability, T/C (compound 0.0316 µM): 108% and 106% | viability, T/C (compound 0.1 µM): 92.2% and 91.8% | viability, T/C (compound 0.316 µM): 100% and 95.3% | viability, T/C (compound 1 µM): 108% and 93.8% | viability, T/C (compound 3.16 µM): 87.8% and 93.4% | viability, T/C (compound 10 µM): 36.3% and 21.7%

SMILES: CCN1CCN(Cc2ccc(Nc3ncc(F)c(-c4cc(F)c5nc(C)n(C(C)C)c5c4)n3)nc2)CC1 + CN1CCN(c2cc(C(=O)Nc3cc4cc(-c5cnn(C)c5)ccc4cn3)ccn2)CC1
pIC50 [1]: < 6.00 | pIC50 [2]: < 6.00 | pIC50 [3]: > 8.50 | pIC50 [4]: > 8.50 | pIC50 [5]: > 8.50 | pIC50 [6]: > 8.50 | viability, T/C (second compound 0.0316 µM, first compound 0.00316 µM): 90.4% | viability, T/C (second compound 0.0316 µM, first compound 0.01 µM): 87.9% | viability, T/C [7]: 78.6% | viability, T/C [8]: 81% | viability, T/C [9]: 76.2% | viability, T/C [10]: 87.7% | viability, T/C (second compound 0.1 µM, first compound 0.00316 µM): 79.5% | viability, T/C (second compound 0.1 µM, first compound 0.01 µM): 73% | viability, T/C [11]: 72.8% | viability, T/C [12]: 72.9% | viability, T/C [13]: 68.2% | viability, T/C [14]: 70.6% | viability, T/C (second compound 0.316 µM, first compound 0.00316 µM): 6.01% | viability, T/C (second compound 0.316 µM, first compound 0.01 µM): 10.2% | viability, T/C [15]: 8.8% | viability, T/C [16]: 11.3% | viability, T/C [17]: 13.7% | viability, T/C [18]: 9.83% | viability, T/C (second compound 1 µM, first compound 0.00316 µM): 0.34% | viability, T/C (second compound 1 µM, first compound 0.01 µM): 0.41% | viability, T/C [19]: 0.41% | viability, T/C [20]: 0.39% | viability, T/C [21]: 0.77% | viability, T/C [22]: 2.79% | viability, T/C (second compound 3.16 µM, first compound 0.00316 µM): 0.34% | viability, T/C (second compound 3.16 µM, first compound 0.01 µM): 1.89% | viability, T/C [23]: 1.33% | viability, T/C [24]: 0.51% | viability, T/C [25]: 1.22% | viability, T/C [26]: 4.6% | viability, T/C (second compound 10 µM, first compound 0.00316 µM): 0.22% | viability, T/C (second compound 10 µM, first compound 0.01 µM): 0.34% | viability, T/C [27]: 0.36% | viability, T/C [28]: 0.29% | viability, T/C [29]: 1.36% | viability, T/C [30]: 2.46%
